Results: PubChem BioAssay AID1963840 (Molecular Pharmacology Branch, DTP, NCI, 2024)
Several values for one entry are separate records, joined by “and”; a condition that tells them apart may be missing. Identical values can stand only once.

Test system: 695427-040-R-J1-PDC complex spheroid viability
Test: Anticancer human tumor 695427-040-R-J1-PDC patient-derived colon adenocarcinoma cell line growth inhibition [POLQ]
Conditions: for viability, T/C: stronger effect = lower value; for IC50: curve of compound
Method: Multicellular complex tumor spheroid response to Polymerase (POL) inhibitors (novobiocin, ART-558, RP6685) in combination with a variety of drugs and investigational agents in selected tumor cell lines
The POL inhibitors (novobiocin, ART-558, and RP6685) were evaluated both individually and in combination with standard of care and investigational anticancer small molecules within a complex spheroid model of solid tumors. . Complex spheroids include a stromal component modeled by human endothelial cells (HUVEC) and fibroblasts modeled by human mesenchymal stem cells (MSCs). The concentration ranges selected for each drug and investigational agent were based upon clinically achievable concentrations if the clinical Cmax of the agent was known.
Compounds. The drugs and investigational agents: novobiocin (NSC847541), ART-558 (NSC835418), RP-6685 (NSC848927), peposertib (NSC802822), ceralasertib (NSC780249), elimusertib (NSC800525), camonsertib (NSC841442), AZD-1390 (NSC803789), olaparib (NSC753686), talazoparib (NSC767125), rucaparib (NSC756644), sotorasib (NSC818433), MRTX-1133 (NSC836407), SN-38 (NSC673596), topotecan (NSC609699), epotoside (NSC141540), doxorubicin (NSC123127), gemcitabine (NSC613327), 5-fluorouracil (NSC19893), paclitaxel (NSC125973), vemurafenib (NSC761431), MSA-2 (NSC828583), SN-011 (NSC837082), adavosertib (NSC754352), prexasertib (NSC758257), carboplatin (NSC241240) and oxaliplatin (NSC266046), were obtained from the National Cancer Institute (NCI) Developmental Therapeutics Program Chemical Repository (21). The FDA-approved anticancer drug set is available from the Developmental Therapeutics Program at https://dtp.cancer.gov/organization/dscb/obtaining/. […] The stock solutions were prepared in dimethyl sulfoxide (DMSO, Sigma-Aldrich, St. Louis, MO, cat. D2650), except for the platinum compounds which were prepared in saline (Quality Biological, Gaithersburg, MD, cat. 114-055-101), at 800-fold the tested concentration and stored at -70 degrees C prior to their use. All drugs and investigational agents were tested over a range starting from a high concentration at or near the clinical Cmax and decreasing in half-log increments. If the clinical Cmax for an agent had not been determined, the highest concentration tested was 10 microM, except for SN-38, which was tested at a high concentration of 1 microM.
Cell Culture. All cells were maintained in an incubator at 37 degrees C and 5% CO2 with 95% humidity. The PDC lines were cultured according to standard operating procedures established by the NCI PDMR (https://pdmr.cancer.gov). Table 3 of the manuscript, lists the cell lines along with the number of the three cell types plated to form the mct-spheroids and media for tumor cell growth. After thawing, all PDC lines, except 997537-175-T-J1-PDC and 415267-285-R-J2-PDC, were cultured in Matrigel-coated flasks prepared with a working solution of 1X Ham's F-12 nutrient mix, without supplementation (Thermo Fisher Scientific, cat. 11765054), 100 U/mL penicillin-streptomycin (Thermo Fisher Scientific, cat. 15140122), and 2.5% Matrigel (Corning Inc., Corning, NY, cat. 354248) for the first three passages. The two PDC lines 997537-175-T-J1-PDC and 415267-285-R-J2-PDC were cultured on uncoated flasks. The 857933-349-R-J2-PDC line was cultured in 6C/Colon 1B media containing advanced DMEM/F-12 (Thermo Fisher Scientific, cat. 12634028), 10 mM HEPES (Thermo Fisher Scientific, cat. 15630080), 1X GlutaMAX supplement (Thermo Fisher Scientific, cat. 35050061), 0.1 mg/mL primocin (InvivoGen, San Diego, CA, cat. ant-pm-2), 10% defined fetal bovine serum, heat inactivated (HyClone Laboratories Inc., Logan, UT, cat. SH30070.03HI), 50% L-WRN conditioned media (ATCC, cat. CRL-3276), 1.25 mM N-Acetyl-L-cysteine (Sigma-Aldrich, cat. A9165), 10 mM nicotinamide (Sigma-Aldrich, cat. N0636), 1X B-27 supplement (Thermo Fisher Scientific, cat. 17504044), 1X N-2 supplement (Thermo Fisher Scientific, cat. […]
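Also: spheroids exposed to compounds for seven days.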
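For viability, T/C in this document: 100% = DMSO vehicle control viability.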

Structure (SMILES): C#Cc1c(F)ccc2cc(O)cc(-c3ncc4c(N5CC6CCC(C5)N6)nc(OCC56CCCN5CC(F)C6)nc4c3F)c12 (stereo not drawn)
- viability, T/C (compound 0.0316 µM): 102% (2×) and 106%
- viability, T/C (compound 0.1 µM): 93.8% and 98.8% and 105%
- viability, T/C (compound 0.316 µM): 95% and 98.2% and 97.1%
- viability, T/C (compound 1 µM): 98.6% and 102% and 107%
- viability, T/C (compound 3.16 µM): 90.7% and 98.5% and 95%
- viability, T/C (compound 10 µM): 76.6% and 91% and 87.1%
- IC50: > 10 µM

Structure (SMILES): C=CC(=O)N1CCN(c2nc(=O)n(-c3c(C)ccnc3C(C)C)c3nc(-c4c(O)cccc4F)c(F)cc23)C(C)C1 (stereo not drawn)
- viability, T/C (compound 0.0316 µM): 105% and 108% and 107%
- viability, T/C (compound 0.1 µM): 88.5% and 91.5% and 95.3%
- viability, T/C (compound 0.316 µM): 103% and 107% and 106%
- viability, T/C (compound 1 µM): 117% and 106% and 121%
- viability, T/C (compound 3.16 µM): 105% and 91.4% and 112%
- viability, T/C (compound 10 µM): 113% (2×) and 96.9%
- IC50: > 10 µM

Structure (SMILES): C=CCn1c(=O)c2cnc(Nc3ccc(N4CCN(C)CC4)cc3)nc2n1-c1cccc(C(C)(C)O)n1
- viability, T/C (compound 0.00316 µM): 99.5% and 88.8% and 103%
- viability, T/C (compound 0.01 µM): 90.1% and 92% and 91.7%
- viability, T/C (compound 0.0316 µM): 98.5% and 104% and 103%
- viability, T/C (compound 0.1 µM): 103% and 99.2% and 95.7%
- viability, T/C (compound 0.316 µM): 86.5% and 95.4% and 93.7%
- viability, T/C (compound 1 µM): 77.5% and 73.7% and 82%
- IC50: > 1 µM

Structure (SMILES): CC(=O)O[C@H]1C(=O)[C@@]2(C)[C@H]([C@H](OC(=O)c3ccccc3)[C@]3(O)C[C@H](OC(=O)[C@H](O)[C@@H](NC(=O)c4ccccc4)c4ccccc4)C(C)=C1C3(C)C)[C@]1(OC(C)=O)CO[C@@H]1C[C@@H]2O
- viability, T/C (compound 0.00949 µM): 93.8% and 92.4% and 99.8%
- viability, T/C (compound 0.03 µM): 86.1% and 95.4% and 86.8%
- viability, T/C (compound 0.0949 µM): 91.8% and 101% and 86.8%
- viability, T/C (compound 0.3 µM): 90.8% and 96.8% and 89.7%
- viability, T/C (compound 0.949 µM): 102% and 98.8% and 82.3%
- viability, T/C (compound 3 µM): 84.5% and 89.3% and 74.2%
- IC50: > 3 µM

Structure (SMILES): CC(C)n1c(=O)n(C)c2cnc3cc(F)c(-c4ccc(OCCCN5CCCCC5)nc4)cc3c21
- viability, T/C (compound 0.0316 µM): 96.7% and 98.1% and 112%
- viability, T/C (compound 0.1 µM): 104% and 109% and 101%
- viability, T/C (compound 0.316 µM): 109% and 104% and 106%
- viability, T/C (compound 1 µM): 109% (2×) and 124%
- viability, T/C (compound 3.16 µM): 104% and 108% and 101%
- viability, T/C (compound 10 µM): 73.4% and 83.2% and 79%
- IC50: > 10 µM

Structure (SMILES): CC1COCCN1c1cc(-c2ccnn2C)c2ccnc(-c3ccn[nH]3)c2n1 (stereo not drawn)
- viability, T/C (compound 0.0316 µM): 99% and 89.7% and 98.1%
- viability, T/C (compound 0.1 µM): 76.9% and 79.1% and 84.7%
- viability, T/C (compound 0.316 µM): 64.2% and 62% and 69.8%
- viability, T/C (compound 1 µM): 53.6% and 51.7% and 67.6%
- viability, T/C (compound 3.16 µM): 48.9% and 46% and 62.1%
- viability, T/C (compound 10 µM): 50.2% and 47.4% and 57.1%
- IC50: 4.35 µM and 1.4 µM and > 10 µM

Structure (SMILES): CC1COCCN1c1cc(C2(O)CC3CCC(C2)O3)c2cnn(-c3ccn[nH]3)c2n1 (stereo not drawn)
- viability, T/C (compound 0.0316 µM): 100% and 101% and 103%
- viability, T/C (compound 0.1 µM): 85.7% and 87.4% and 94.1%
- viability, T/C (compound 0.316 µM): 79.1% and 75.7% and 85.8%
- viability, T/C (compound 1 µM): 64.4% and 68.9% and 78.5%
- viability, T/C (compound 3.16 µM): 55.6% and 52% and 69%
- viability, T/C (compound 10 µM): 46.3% and 44.4% and 55.9%
- IC50: 6.3 µM and 5.11 µM and > 10 µM

Structure (SMILES): CC1COCCN1c1cc(C2(S(C)(=N)=O)CC2)nc(-c2ccnc3[nH]ccc23)n1 (stereo not drawn)
- viability, T/C (compound 0.0316 µM): 102% and 96% and 100%
- viability, T/C (compound 0.1 µM): 96% and 102% and 100%
- viability, T/C (compound 0.316 µM): 100% and 94.3% and 98.1%
- viability, T/C (compound 1 µM): 103% and 91.7% and 102%
- viability, T/C (compound 3.16 µM): 96.4% and 98.4% and 99.3%
- viability, T/C (compound 10 µM): 80.5% and 96.6% and 81.2%
- IC50: > 10 µM

Structure (SMILES): CCCS(=O)(=O)Nc1ccc(F)c(C(=O)c2c[nH]c3ncc(-c4ccc(Cl)cc4)cc23)c1F
- viability, T/C (compound 0.0316 µM): 106% and 102% and 97.1%
- viability, T/C (compound 0.1 µM): 94.9% and 109% and 95.8%
- viability, T/C (compound 0.316 µM): 95.9% and 109% and 96.2%
- viability, T/C (compound 1 µM): 108% and 103% and 104%
- viability, T/C (compound 3.16 µM): 110% and 103% and 109%
- viability, T/C (compound 10 µM): 87.5% and 88.3% and 86%
- IC50: > 10 µM

Structure (SMILES): CC[C@@]1(O)C(=O)OCc2c1cc1n(c2=O)Cc2cc3c(CN(C)C)c(O)ccc3nc2-1
- viability, T/C (compound 0.000316 µM): 94.3% and 106% and 102%
- viability, T/C (compound 0.001 µM): 105% and 101% and 103%
- viability, T/C (compound 0.00316 µM): 102%
- viability, T/C (compound 0.01 µM): 96.3% and 98.2% and 106%
- viability, T/C (compound 0.0316 µM): 101% and 113% and 103%
- viability, T/C (compound 0.1 µM): 94.8% and 111% and 89.7%
- IC50: > 0.1 µM

Structure (SMILES): CCc1c2c(nc3ccc(O)cc13)-c1cc3c(c(=O)n1C2)COC(=O)[C@]3(O)CC
- viability, T/C (compound 0.00316 µM): 92.3% and 98.2% and 97%
- viability, T/C (compound 0.01 µM): 79.9% and 89.2% and 92.2%
- viability, T/C (compound 0.0316 µM): 76.8% and 99.3% and 92.6%
- viability, T/C (compound 0.1 µM): 77.9% and 90.7% and 82.1%
- viability, T/C (compound 0.316 µM): 65.9% and 87.4% and 76%
- viability, T/C (compound 1 µM): 49.6% and 66.4% and 51.3%
- IC50: > 1 µM

Structure (SMILES): CCc1cc2c(N3CCc4c(cc(Cn5ccnc5)cc4-c4cn(C)nc4C(F)(F)F)C3=O)cc(C)nc2c(OC)n1
- viability, T/C (compound 0.0316 µM): 107% and 108% and 105%
- viability, T/C (compound 0.1 µM): 105% and 101% and 108%
- viability, T/C (compound 0.316 µM): 110% and 98.6% and 100%
- viability, T/C (compound 1 µM): 108% and 101% and 96.8%
- viability, T/C (compound 3.16 µM): 104% and 112% and 110%
- viability, T/C (compound 10 µM): 96.4% and 97.9% and 106%
- IC50: > 10 µM

Structure (SMILES): CCc1cc2c(N3CCc4c(cc(Cn5ccnc5)cc4-c4cn(C)nc4C(F)(F)F)C3=O)ccnc2c(OC)n1
- viability, T/C (compound 0.0316 µM): 114% and 91.3% and 93.8%
- viability, T/C (compound 0.1 µM): 97.6% and 96% and 98.8%
- viability, T/C (compound 0.316 µM): 110% and 88.2% and 101%
- viability, T/C (compound 1 µM): 106% and 95.6% and 101%
- viability, T/C (compound 3.16 µM): 112% (2×) and 103%
- viability, T/C (compound 10 µM): 103% and 96% and 100%
- IC50: > 10 µM

Structure (SMILES): CNCc1ccc(-c2[nH]c3cc(F)cc4c3c2CCNC4=O)cc1
- viability, T/C (compound 0.0316 µM): 102% and 100% and 94.1%
- viability, T/C (compound 0.1 µM): 96.6% and 99.5% and 98.4%
- viability, T/C (compound 0.316 µM): 106% and 104% (2×)
- viability, T/C (compound 1 µM): 104% and 102% and 105%
- viability, T/C (compound 3.16 µM): 108% and 118% and 102%
- viability, T/C (compound 10 µM): 102% and 111% and 103%
- IC50: > 10 µM
